Data taken from PubChem BioAssay AID248 (DTP/NCI, 2004).
Toxic doses and inconclusive results are not listed. No stated cut-off is given here; in the data, active means T/C of 150% or more; inactive means T/C below 125%.

Test system: L1210 leukemia ip in BDF1 mice, survival T/C
Experiment: NCI In Vivo Anticancer Drug Screen. Data for tumor model L1210 Leukemia (intraperitoneal) in B6D2F1 (BDF1) mice
Conditions: endpoint: mean survival time, higher = longer survival
Procedure, shortened: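 Transplanted-tumor mice were given test agent; controls received vehicle only. Survival readings from the two groups were divided (treated over control).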

[1] = dose: 100.0 mg/kg/injection, schedule: Q01DX001 (ip), vehicle: other
[2] = dose: 200.0 mg/kg/injection, schedule: Q01DX001 (ip), vehicle: other
[3] = dose: 400.0 mg/kg/injection, schedule: Q01DX001 (ip), vehicle: other
[4] = dose: 100.0 mg/kg/injection, schedule: Q01DX009 (ip), vehicle: Klucel (hydroxypropylcellulose) (HPC)
[5] = dose: 100.0 mg/kg/injection, schedule: Q04DX003 (ip), vehicle: Klucel (hydroxypropylcellulose) (HPC)
[6] = dose: 200.0 mg/kg/injection, schedule: Q01DX009 (ip), vehicle: Klucel (hydroxypropylcellulose) (HPC)
[7] = dose: 200.0 mg/kg/injection, schedule: Q04DX003 (ip), vehicle: Klucel (hydroxypropylcellulose) (HPC)
[8] = dose: 400.0 mg/kg/injection, schedule: Q01DX009 (ip), vehicle: Klucel (hydroxypropylcellulose) (HPC)
[9] = dose: 400.0 mg/kg/injection, schedule: Q04DX003 (ip), vehicle: Klucel (hydroxypropylcellulose) (HPC)
[10] = dose: 100.0 mg/kg/injection, schedule: Q01DX001 (ip), vehicle: saline
[11] = dose: 200.0 mg/kg/injection, schedule: Q01DX001 (ip), vehicle: saline
[12] = dose: 400.0 mg/kg/injection, schedule: Q01DX001 (ip), vehicle: saline
[13] = dose: 100.0 mg/kg/injection, schedule: Q01DX001 (ip), vehicle: carboxymethylcellulose (CMC)
[14] = dose: 200.0 mg/kg/injection, schedule: Q01DX001 (ip), vehicle: carboxymethylcellulose (CMC)
[15] = dose: 400.0 mg/kg/injection, schedule: Q01DX001 (ip), vehicle: carboxymethylcellulose (CMC)
[16] = dose: 100.0 mg/kg/injection, schedule: Q01DX009 (ip), vehicle: saline with Tween-80
[17] = dose: 200.0 mg/kg/injection, schedule: Q01DX009 (ip), vehicle: saline with Tween-80
[18] = dose: 400.0 mg/kg/injection, schedule: Q01DX009 (ip), vehicle: saline with Tween-80
[19] = dose: 50.0 mg/kg/injection, schedule: Q01DX009 (ip), vehicle: Klucel (hydroxypropylcellulose) (HPC)
[20] = dose: 100.0 mg/kg/injection, schedule: Q04DX003 (ip), vehicle: saline with Tween-80
[21] = dose: 200.0 mg/kg/injection, schedule: Q04DX003 (ip), vehicle: saline with Tween-80
[22] = dose: 400.0 mg/kg/injection, schedule: Q04DX003 (ip), vehicle: saline with Tween-80

Measured: T/C

CCOC(=O)c1cc2cc(CC)ccc2[nH]1
inactive: [1] 102 % of control | [2] 95 % of control | [3] 95 % of control

Oc1ccc(-c2ccccc2)cc1CNC12CC3CC(CC(C3)C1)C2
inactive: [4] 100 % of control | [5] 90 % of control | [6] 88 % of control | [7] 100 % of control | [8] 93 % of control | [9] 94 % of control

O=C(O)C(c1ccccc1)S(=O)(=O)C(C(=O)O)c1ccccc1 (stereo not drawn)
inactive: [10] 95 % of control | [11] 101 % of control | [12] 95 % of control

O=C(Cc1ccccc1[N+](=O)[O-])NCCc1ccc2c(c1)OCO2
inactive: [1] 86 % of control | [2] 89 % of control | [3] 89 % of control

CCOC(=O)CC(=O)c1ccccc1F
inactive: [4] 97 % of control | [5] 102 % of control | [6] 103 % of control | [7] 103 % of control | [8] 93 % of control | [9] 100 % of control

CCCCC(=O)NC1=C(Cl)C(=O)c2ccccc2C1=O
inactive: dose: 75.0 mg/kg/injection, schedule: Q01DX001 (ip), vehicle: saline 89 % of control | dose: 150.0 mg/kg/injection, schedule: Q01DX001 (ip), vehicle: saline 90 % of control

[Cl][Ge]([c]1ccccc1)([c]1ccccc1)[c]1ccccc1
inactive: [4] 104 % of control | [6] 102 % of control | [8] 95 % of control

Nc1ccc2c(c1)C1(NC(=O)NC1=O)c1cc(N)ccc1-2
inactive: dose: 50.0 mg/kg/injection, schedule: Q01DX001 (ip), vehicle: carboxymethylcellulose (CMC) 101 % of control | [13] 101 % of control | [14] 109 % of control | [15] 103 % of control

NCCOc1ccc([N+](=O)[O-])cc1Cl
inactive: dose: 50.0 mg/kg/injection, schedule: Q01DX009 (ip), vehicle: saline 93 % of control | dose: 75.0 mg/kg/injection, schedule: Q01DX001 (ip), vehicle: other 96 % of control | dose: 100.0 mg/kg/injection, schedule: Q01DX009 (ip), vehicle: saline 98 % of control | dose: 100.0 mg/kg/injection, schedule: Q04DX003 (ip), vehicle: saline 121 % of control | dose: 150.0 mg/kg/injection, schedule: Q01DX001 (ip), vehicle: other 100 % of control | dose: 200.0 mg/kg/injection, schedule: Q01DX009 (ip), vehicle: saline 96 % of control | dose: 200.0 mg/kg/injection, schedule: Q04DX003 (ip), vehicle: saline 103 % of control | dose: 300.0 mg/kg/injection, schedule: Q01DX001 (ip), vehicle: other 96 % of control

CC(C)(C)C1CC(C(F)(F)F)(C(F)(F)F)OP(=O)(N2CCCCC2)O1 (stereo not drawn)
inactive: dose: 50.0 mg/kg/injection, schedule: Q01DX001 (ip), vehicle: Klucel (hydroxypropylcellulose) (HPC) 98 % of control | dose: 100.0 mg/kg/injection, schedule: Q01DX001 (ip), vehicle: Klucel (hydroxypropylcellulose) (HPC) 100 % of control | dose: 200.0 mg/kg/injection, schedule: Q01DX001 (ip), vehicle: Klucel (hydroxypropylcellulose) (HPC) 96 % of control

CC/C(=C/C(F)(F)C(F)(F)C(F)(F)F)[N+](=O)[O-]
inactive: [13] 112 % of control | [14] 103 % of control

Cc1cc2c3ccccc3nc(C(F)(F)F)n2n1
inactive: [16] 97 % of control | [17] 103 % of control | [18] 95 % of control

COC(=O)c1ccc(N(C)CC(=O)CNc2nc(N)nc(SCc3ccccc3)c2[N+](=O)[O-])cc1
inactive: dose: 100.0 mg/kg/injection, schedule: Q01DX001 (ip), vehicle: saline with Tween-80 88 % of control | dose: 200.0 mg/kg/injection, schedule: Q01DX001 (ip), vehicle: saline with Tween-80 89 % of control | dose: 400.0 mg/kg/injection, schedule: Q01DX001 (ip), vehicle: saline with Tween-80 88 % of control

CC/C(=N\NC(N)=O)C(OC)OC
inactive: [13] 108 % of control | [14] 86 % of control | [15] 92 % of control

COc1ccc(OC)c2c(=O)c(C(=O)O)c[nH]c12
inactive: [10] 102 % of control | [11] 100 % of control | [12] 105 % of control

COC(=O)OCC1OC(OC(C)=O)C2OC(=O)OC12 (stereo not drawn)
inactive: [10] 97 % of control | [11] 97 % of control | [12] 97 % of control

Oc1ccc2ccccc2c1/C=C1/C=Nc2ccccc21
inactive: dose: 100.0 mg/kg/injection, schedule: Q04DX002 (ip), vehicle: saline with Tween-80 88 % of control | dose: 200.0 mg/kg/injection, schedule: Q04DX002 (ip), vehicle: saline with Tween-80 88 % of control | dose: 400.0 mg/kg/injection, schedule: Q04DX002 (ip), vehicle: saline with Tween-80 103 % of control

CN=C(NC)c1cccc(NC(=O)/C=C\c2ccc(/C=C/C(=O)Nc3cccc(C(=NC)NC)c3)cc2)c1
inactive: dose: 0.56 mg/kg/injection, schedule: Q01DX Z (ip), vehicle: carboxymethylcellulose (CMC) 103 % of control | dose: 1.12 mg/kg/injection, schedule: Q01DX Z (ip), vehicle: carboxymethylcellulose (CMC) 103 % of control | dose: 2.25 mg/kg/injection, schedule: Q01DX Z (ip), vehicle: carboxymethylcellulose (CMC) 120 % of control

COC1OC(C)C(OS(C)(=O)=O)C2OC(C)(C)OC12 (stereo not drawn)
inactive: [19] 103 % of control | [4] 97 % of control | [5] 124 % of control | [6] 100 % of control | [7] 107 % of control | [8] 112 % of control | [9] 101 % of control

O=C(Nc1nccs1)Nc1cccc2ccccc12
inactive: dose: 100.0 mg/kg/injection, schedule: Q04DX002 (ip), vehicle: Klucel (hydroxypropylcellulose) (HPC) 93 % of control | dose: 200.0 mg/kg/injection, schedule: Q04DX002 (ip), vehicle: Klucel (hydroxypropylcellulose) (HPC) 93 % of control | dose: 400.0 mg/kg/injection, schedule: Q04DX002 (ip), vehicle: Klucel (hydroxypropylcellulose) (HPC) 93 % of control

Oc1ccc(C=Nc2ccccc2N=Cc2ccc(O)c(O)c2)cc1O
inactive: [16] 105 % of control | [20] 100 % of control | [17] 100 % of control | [21] 96 % of control | [18] 100 % of control | [22] 91 % of control

CC(C)CCOC(c1ccc2c(c1)OCO2)C(C)Br (stereo not drawn)
inactive: [20] 94 % of control | [21] 87 % of control | [22] 94 % of control

[C-]#[N+]C(C)(c1ccccc1)c1ccccc1
inactive: dose: 12.5 mg/kg/injection, schedule: Q01DX001 (ip), vehicle: acetone 92 % of control | dose: 25.0 mg/kg/injection, schedule: Q01DX001 (ip), vehicle: acetone 95 % of control | dose: 50.0 mg/kg/injection, schedule: Q01DX001 (ip), vehicle: acetone 110 % of control

O=CN/N=C/c1c[nH]c(=O)[nH]c1=O
inactive: [10] 101 % of control | [11] 106 % of control | [12] 95 % of control

Nc1ccccc1/C=C/c1ccncc1
inactive: [19] 100 % of control | [4] 92 % of control | [6] 101 % of control | [8] 100 % of control
